Data set [1] concerns NF-κB transcriptional activity. Nature of the data set: Jurkat/GFP/NF-κB transcriptional reporter assay. Type of data set: cell-based. To be noted: 12 hours; 1, 3, 6 and 10 μM. On the procedure: Jurkat/GFP/NF-κB transcriptional reporter cells were stimulated with TNF-α and incubated for 8 and 22 hours in the presence of empty vehicle or 1, 3 and 6 μM of IT-848 or IT-878. NF-κB transcriptional activity (GFP mean fluorescence intensity) was analyzed by flow cytometry. Mean and SEM of relative fluorescent intensities are presented.
(§1) Jurkat/GFP/NF-κB transcriptional reporter cells were stimulated with TNF-α, Jurkat/Luciferase/NFAT transcriptional reporter cells were stimulated with PMA/ionomycin, and HepG2/Luciferase/Nrf2-Antioxidant response element (ARE) transcriptional reporter cells were treated with tert-butylhydroquinone. The respective cell lines were incubated for 12 hours in the presence of empty vehicle or 1, 3, 6 and 10 μM of IT-848 or IT-878. NF-κB transcriptional activity was analyzed by flow cytometry, NFAT and Nrf2 transcriptional activities were analyzed by luminescence measurement. Mean and SEM of relative fluorescent or luminescent intensities are presented.
(§2) A NF-κB/Jurkat/GFP transcription reporter cell line was purchased from System Biosciences. NFAT/Jurkat/Luciferase transcriptional reporter cells were generated at Memorial Sloan-Kettering Cancer Center. HepG2/ARE/Luciferase Nrf2 transcriptional reporter cells were purchased from BPS biosciences.
(A reporter such as luciferase makes a cellular process visible.)

Data set [2] deals with NFAT transcriptional activity. In words: Jurkat/Luciferase/NFAT transcriptional reporter assay. Type of data set: cell-based. The note with it: PMA/ionomycin stimulated; 12 hours; 1, 3, 6 and 10 μM. How it is done:
as §1, §2

Data set [3] deals with Nrf2 transcriptional activity. Nature of the data set: HepG2/Luciferase/Nrf2-ARE transcriptional reporter assay. It is filed as cell-based. To be noted: tert-butylhydroquinone treated; 12 hours; 1, 3, 6 and 10 μM. How it is done: as §1, §2
Data set [4] has as its system mouse splenocytes. Nature of the data set: Toxicity to healthy cells (DAPI viability, MTS metabolic activity), mouse splenocytes. It is filed as cell-based. The note with it: 24 hours, 1, 3, 6 and 10 μM. How it is done: (§3) Mouse splenocytes and human peripheral blood mononuclear cells (PBMC) were incubated for 24 hours in the presence of empty vehicle or 1, 3, 6 and 10 μM of IT-848 or IT-878. Viability (percentage of DAPI-negative cells) was analyzed by flow cytometry and metabolic activity was analyzed by MTS assay. Mean and SEM of relative viability or metabolic activity are presented.
(§4) Human peripheral blood mononuclear cells (PBMC) were purified from donor blood according to accepted protocols. Mouse splenocytes were purified from mouse spleen using methods known to those skilled in the art.

Data set [5] relates to human peripheral blood mononuclear cells (PBMC). Nature of the data set: Toxicity to healthy cells (DAPI viability, MTS metabolic activity), human PBMC. It is filed as cell-based. To be noted: 24 hours, 1, 3, 6 and 10 μM. On the procedure:
as §3, §4

In data set [6] the test system is MM.1S multiple myeloma cells. In words: MTS cell proliferation assay, MM.1S. Type of data set: cell-based, human. The note with it: 2, 4 and 6 μM, 24 and 48 hours. How it is done:
MM.1S human multiple myeloma cells were incubated for 48 hours in the presence of empty vehicle or 2, 4 and 6 μM of IT-848, IT-878, PS-1145, or ibrutinib, Cell proliferation was analyzed after 24 and 48 hours by MTS assay. Mean and SEM or relative cell growth are presented.
(§5) TDM8, Ly19, L363, SUDHL4, MM.1S or U266 cells were independently incubated for up to 48 hours in the presence of empty vehicle, IT-compound (2, 4, 6 μM), PS-1145 (2, 4 and 6 μM), or ibrutinib (2, 4 and 6 μM). Cell growth was measured indirectly after 24 and 48 hours by CellTiter 96 Aqueous Non-Radioactive Cell Proliferation Assay (Promega, Madison, Wis.) per manufacturer's instructions. Briefly, tetrazolium compound [-(4,5-dimethylthiazol-2-yl)-5-(3-carboxymethoxyphenyl)-2-(4-sulfophenyl)-2H-tetrazolium, inner salt; MTS] was added to the culture media and the conversion of MTS into formazon was measured by the amount of 490 nm absorbance. The number of viable cells correlates with absorbance at 490 nm. The results are shown in FIGS. 5A-D. Mean and SEM of relative cell growth are presented.
In general terms: Formazan colour is commonly taken as a measure of viable cells.

Data set [7] has as its system U266 multiple myeloma cells. Nature of the data set: MTS cell proliferation assay, U266. The note with it: 2, 4 and 6 μM, 24 and 48 hours. It is filed as cell-based, human. On the procedure: U266 human multiple myeloma cells were incubated for 48 hours in the presence of empty vehicle or 2, 4 and 6 μM of IT-848, IT-878, PS-1145, or ibrutinib, Cell proliferation was analyzed after 24 and 48 hours by MTS assay. Mean and SEM or relative cell growth are presented.
as §5

Data set [8] has as its system TMD8 B cell lymphoma cells. In words: MTS cell proliferation assay, TMD8. Type of data set: cell-based, human. The note with it: 2, 4 and 6 μM, 24 and 48 hours. On the procedure:
TMD8 human DLBCL cells were incubated for 48 hours in the presence of empty vehicle or 2, 4 and 6 μM of IT-848, IT-878, PS-1145, or ibrutinib, Cell proliferation was analyzed after 24 and 48 hours by MTS assay. Mean and SEM or relative cell growth are presented.
as §5

For data set [9], the system named is SUDHL4 B cell lymphoma cells. Nature of the data set: MTS cell proliferation assay, SUDHL4. Type of data set: cell-based, human. The note with it: 2, 4 and 6 μM, 24 and 48 hours. How it is done: SUDHL4 human DLBCL cells were incubated for 48 hours in the presence of empty vehicle or 2, 4 and 6 μM of IT-848, IT-878, PS-1145, or ibrutinib, Cell proliferation was analyzed after 24 and 48 hours by MTS assay. Mean and SEM or relative cell growth are presented.
as §5

The next data set concerns TMD8 cells. In words: MTS assay, combination with Panobinostat in TMD8 cells. It is filed as cell-based, human. To be noted: IT-848 4 μM + Panobinostat 0.1 μM; 24 and 48 hours. On the procedure: TMD8 and DLBCL cells were incubated for 48 hours in the presence of empty vehicle, IT-848 (4 μM), Panobinostat (0.1 μM), or a combination of IT-848 and Panobinaostat. Cell proliferation was analyzed after 24 and 48 hours by MTS assay. Mean and SEM of relative cell growth are presented.

For another data set, the system named is HBL1 cells. In words: MTS assay, combination with Bortezomib in HBL1 cells. It is filed as cell-based, human. To be noted: IT-848 4 μM + Bortezomib 0.02 μM; 24 and 48 hours. How it is done:
HBL1 human DLBCL cells were incubated for 48 hours in the presence of empty vehicle, IT-848 (4 μM), Bortezomib (0.02 μM), or a combination of IT-848 and Bortezomib. Cell proliferation was analyzed after 24 and 48 hours by MTS assay. Mean and SEM of relative cell growth are presented.

The next data set deals with interleukin 6 (IL-6). In words: IL-6 secretion by ELISA in DLBCL and MM cell lines. Type of data set: cell-based, human. The note with it: TMD8, HBL1 and U266 cells; 4 and 6 μM; 12 and 24 hours. How it is done:
TMD8, HBL1 and U266 cells were incubated for 24 hours in the presence of empty vehicle or IT-848 (4 and 6 μM). IL-6 concentrations in the culture media were analyzed after 12 and 24 hours by ELISA. Mean and SEM of relative IL-6 levels (percentage of vehicle) are presented.
A general note: An ELISA detects its analyte on a solid surface through an enzyme-linked reagent.

The next data set deals with interleukin 10 (IL-10). In words: IL-10 secretion by ELISA in DLBCL and MM cell lines. Type of data set: cell-based, human. To be noted: TMD8, HBL1 and U266 cells; 4 and 6 μM; 12 and 24 hours. On the procedure: TMD8, HBL1 and U266 cells were incubated for 24 hours in the presence of empty vehicle or IT-848 (4 and 6 μM). IL-10 concentrations in the culture media were analyzed after 12 and 24 hours by ELISA. Mean and SEM of relative IL-10 levels (percentage of vehicle) are presented.

A further data set has as its system MM.1S and U266 cells. In words: ROS levels by DCFDA assay in multiple myeloma cells. Type of data set: cell-based, human. On the procedure: (§6) MM.1S cells, U266 cells or mouse splenocytes were cultured in the presence of empty vehicle or serial dilutions of IT-848. ROS levels were quantified after 4 hours and 24 hours by DCFDA assay.
(§7) Cells were treated in vitro with IT-848 (compound of Formula I), IT-878 (compound of Formula II) or vehicle solution. Reactive oxygen species (ROS) levels were analyzed by cell labelling with 2′, 7′-dichlorofluorescein diacetate (DCFDA) using a Cellular Reactive Oxygen Species Detection Assay Kit (Abcam, Cambridge, Mass.) ROS levels were analyzed by quantifying the fluorogenic marker DCFDA using flow cytometery (LSR II, BD Bioscience, San Jose, Calif.).

The subject of data set [10] is mouse splenocytes. Nature of the data set: ROS levels by DCFDA assay in mouse splenocytes. It is filed as cell-based. How it is done:
as §6, §7

Data set [11] is described as follows: Pharmacokinetics, plasma or whole blood levels by LC-MS/MS. It is filed as in vivo. To be noted: 5-10 mg/kg PO, IP or IV; in particular after IP or oral administration. How it is done: Plasma or whole blood samples were analyzed at several time points after intraperitoneal, intravenous or oral administration of 5-10 mg/kg of IT-848. Samples were analyzed by liquid chromatography-tandem mass spectrometry (LC-MS/MS). IT-848 is cleared slowly after systemic administration.

In data set [12] the test system is luciferase-expressing MM.1S cells. In words: MM.1S xenograft model of multiple myeloma in NSG mice. It is filed as in vivo, mouse. To be noted: IT-848 10 mg/kg i.p. M/W/F x 4 weeks; Bortezomib 0.5 mg/kg i.p. M/T x 4 weeks. How it is done:
NSG mice received 2.5×10^6 luciferase-expressing MM.1S cells intravenously. After 10 days engraftment was confirmed and mice were assigned to four groups: empty vehicle i.p. M/W/F×4 weeks; Bortezomib 0.5 mg/kg i.p. M/T×4 weeks; IT-848 10 mg/kg i.p. M/W/F×4 weeks; Bortezomib M/T+IT-848 M/W/F×4 weeks. A. Tumor growth was analyzed by in vivo bioluminescence imaging. B. Mean and SEM of bioluminescence intensities are presented. N=7-10 The area under the curve (AUC) was used to summarize the bioluminescence intensity for each subject and a permutation test was performed to determine if there was a difference in the AUCs between groups. P values are as follows: Group 1 vs. 2: 0.008; Group 2 vs. 3: 0.032; Group 1 vs 3: <0.001; Group 2 vs 4: <0.001; Group 1 vs 4: <0.001; Group 3 vs 4: 0.029.
In tumor xenograft experiments the bioluminescent signal intensity (BLI) of tumor bearing mice was determined weekly. […] The cause of death (tumor versus toxicity) was determined based on the presence of hind leg paralysis. Death in the absence of hind leg paralysis was attributed to toxicity.
Efficacy studies of IT-848 combined with drugs that are currently used clinically to treat B cell malignancies were also performed. […] Moreover, IT-848 was efficacious in a xenograft model of MM (FIGS. 14, 15A and 15B) and enhanced the efficacy of bortezomib (FIGS. 15A and 15B). Immunodeficient mice received bioluminescent MM.1S cells intravenously and bone marrow engraftment was confirmed by in vivo bioluminescence imaging (BLI) after ten days. Mice were assigned to three treatment groups (IT-848 single agent, bortezomib single agent, combination of IT-848 and bortezomib) and a control group (empty vehicle IP). Onset of hind leg paralysis, which is the clinical endpoint of progressive disease in this model, was delayed in all three treatment groups (FIG. 9).

Results on three molecules are retold here after patent publication US20190314377A1, “TREATMENT OF HEMATOLOGICAL MALIGNANCY WITH SMALL MOLECULE NF-KB INHIBITORS” (MEMORIAL SLOAN-KETTERING CANCER CENTER, priority 2016, published 2019).

For the molecule `CCCCCCOc1ccc2cc3c(=O)[nH]c(=O)nc-3oc2c1Cl` [IT-848, 9-chloro-8-(hexyloxy)-2H-chromeno[2,3-d]pyrimidine-2,4(3H)-dione], the “specificity of inhibition of transcriptional activity” value in [1] is “specific to NF-kB”. In addition, the “effect on NFAT transcriptional activity” value in data set [2] was “spared”. For the same molecule, the “effect on Nrf2 transcriptional activity” value in data set [3] is “spared”. The “viability and metabolic activity of healthy cells” value (in the data set with mouse splenocytes [4]; in data set [5]) was “acceptable level of compromise” each time. The “cell growth (MTS)” value in data set [6], in [7], in [8] and in data set [9] was “inhibits growth” in each case. Also, the “effect on activity of Panobinostat (cell growth, MTS)” value in the data set with TMD8 cells is reported as “enhances the activity”. In addition, the “effect on activity of Bortezomib (cell growth, MTS)” value in the data set on HBL1 cells is recorded as “enhances the activity”. In the data set with interleukin 6 (IL-6), the “secretion of IL-6” value is listed as “decreased”. Besides, in the data set with interleukin 10 (IL-10), the “secretion of IL-10” value is recorded as “decreased”. Further, the ROS levels result in the data set with MM.1S and U266 cells (after 24 hours) is given as “decreased levels”; in the data set on MM.1S and U266 cells (after four hours), “unchanged or increased levels”; in the data set with mouse splenocytes [10] (after 4 hours), “did not alter levels”; in the data set on mouse splenocytes [10] (after 24 hours), “small increase”. Moreover, the clearance result in data set [11] is on record as “slow”. Moreover, the “onset of hind leg paralysis” value in [12] is “delayed”. Besides, the “tumor growth by in vivo bioluminescence imaging (BLI)” value in data set [12] is listed as “efficacious”.
`COCCCCOc1ccc2cc3c(=O)[nH]c(=O)nc-3oc2c1Cl` [IT-878, 9-chloro-8-(4-methoxybutoxy)-2H-chromeno[2,3-d]pyrimidine-2,4(3H)-dione]: the “specificity of inhibition of transcriptional activity” value in [1] is listed as “specific to NF-kB”. The “effect on NFAT transcriptional activity” value in [2] is recorded as “spared”. Besides, the “effect on Nrf2 transcriptional activity” value in data set [3] is listed as “spared”. Also, the “viability and metabolic activity of healthy cells” value (in the data set on mouse splenocytes [4]; in [5]) was “acceptable level of compromise” throughout.
`CC(C)C[C@H](NC(=O)[C@H](Cc1ccccc1)NC(=O)c1cnccn1)B(O)O` [bortezomib, reference compound]: in data set [12], the “onset of hind leg paralysis” value was “delayed” and the “tumor growth by in vivo bioluminescence imaging (BLI)” value is “efficacious”.
